Assay results from patent US11000502B2, “Antimicrobial compositions comprising copper-hydroxypyrone complexes” (United Kingdom Research and Innovation, priority 2017, dated 2021).

Tests used:
E. coli NCTC1110 = assay: In vitro antibacterial assay for liquid copper solutions (turbidimetric E. coli growth inhibition); type: cell-based
Description: Preparation of Copper Complexes with EDTA, Maltol and Ethyl Maltol for Antimicrobial Testing
Cu-EDTA complexes were freshly prepared by dissolving CuCl2.2H2O and disodium ethylenediaminetetraacetate (EDTA) di-hydrate in UHP water. The pH was adjusted to 7.5±0.2 with 1M NaOH. Various Cu:EDTA ratios were achieved by maintaining concentration copper at 20 mM (ca. 1270 ppm), whilst changing that of EDTA—20 and 200 mM—thus achieving Cu-EDTA ratios of 1:1 and 1:10, respectively.
CuMaltol (ratio 1:1) was prepared by mixing equivalent volumes of 100 mM CuCl2.2H2O solution with an alkaline (pH>11) 100 mM maltol solution and quickly diluting the mixture to 10 mM Cu (final pH of 5.7).
Cu Ethylmaltol (ratio 1:1) was prepared by mixing appropriate volumes of 80 mM CuCl2.2H2 O solution with an alkaline (pH>10.5) 20 mM ethylmaltol solution and quickly diluting the mixture to 10 mM Cu and 10 mM ethylmaltol (final pH of 7.2).
CuMaltol (ratio 1:4) was prepared by mixing appropriate volumes of 80 mM CuCl2.2H2O solution with an alkaline (pH>10.5) 60 mM maltol solution and quickly diluting the mixture to 10 mM Cu and 40 mM maltol (final pH of 8.5).
Cu Ethylmaltol (ratio 1:4) was prepared by mixing appropriate volumes of 80 mM CuCl2.2H2O solution with an alkaline (pH>10.5) 60 mM ethylmaltol solution and quickly diluting the mixture to 10 mM Cu and 40 mM ethylmaltol (final pH of 8.5).
Heavy Metal MOPS (HMM) Medium, pH 7.2±0.2.
HMM is a defined medium developed for testing heavy metals and here was supplemented with glucose and cas-amino acids (acid hydrolysate of casein) and optionally with 4% BSA. HMM was prepared from concentrated stock solutions of each reagent, and pH adjusted to 7.2±0.2 (Table 1). Freshly prepared medium was immediately filtered through a 0.22 micron membrane and stored at 4±2° C.
In Vitro Antibacterial Assay for Liquid Copper Solutions
Antimicrobial activity was assessed through determination of E. coli NCTC1110 growth inhibition in the presence of copper compounds. A turbidimetric assay was used to follow bacterial concentration over time as this is proportional to optical density (OD at 595 nm) in liquid medium. Bacterial cultures were grown overnight in HMM at 30° C. under constant shaking (80 rpm). On the day of the assay, the OD of the bacterial suspension was measured at 595 nm on a plate reader and diluted in HMM to achieve an OD of 0.05. […] Final copper concentrations in the assay ranged between 0.4 and 50 ppm, and OD was measured every hour for a typical period of 6 to 8 hours. OD background, i.e. OD absorbance not caused by bacteria, was determined to remove readout interference from copper and broth. Growth inhibition was calculated as follows: […]

[1] = Exemplification of redox protection (copper maltol degradation to cuprous hydroxide); type: physicochemical; conditions: pH 11.8 with sodium hydroxide; overnight (A) / several days (B, 30% (w/w) PEG)
Description: Exemplification of Redox Protection
A 40 mM copper stock was prepared by dissolving 0.347 g copper chloride dihydrate in 50 mL water. The resulting solution was blue.
A 160 mM maltol stock was prepared by dissolving 1.01 g maltol in 50 mL water and pH adjusting with NaOH (pH>10.5. This produced a clear solution.
Experiment A: Copper Maltol Degradation
The copper and maltol stocks were mixed in water at 1:1 ratios (v:v) producing a green solution. pH was then adjusted to 11.8 with sodium hydroxide to accelerate redox conversion.
Experiment B: Copper Maltol-PEG Assemblies Prevent Redox Conversion
Same as experiment A but 30% (w/w) PEG was added.

With Copper ethylmaltol the “antimicrobial properties in protein-rich environments” value (E. coli NCTC1110; HMM with 4% BSA, 6 hours, ratios 1:1 and 1:4) was “retained”.
For `O=C([O-])CN(CCN(CC(=O)[O-])CC(=O)O)CC(=O)O.[Cu+2]` [copper EDTA, reference compound], the “antibacterial action against E. coli (FIG. 1)” value (E. coli NCTC1110; HMM pH 7.2, 6 hours, Cu:EDTA 1:1 and 1:10) was “significantly suppressing its antibacterial action”.
In the case of copper maltol, the “suppression of E. coli growth” value (E. coli NCTC1110; bacterial media (HMM) comprising 4% BSA, 40 ppm copper, 6 hours) is reported as “completely suppressed” and the “redox conversion of Cu2+ to cuprous hydroxide (red precipitate)” value [1] is reported as “a red precipitate (cuprous hydroxide) deposited”.
In the case of `[Cl][Cu][Cl]` [copper chloride, reference compound], the “E. coli growth inhibition” value (E. coli NCTC1110; bacterial media (HMM) comprising 4% BSA, 50 ppm copper, 6 hours) is reported as 60%.
